{
  "source": "the supplement of paper PMC10307832",
  "assay_in_all_cases": "relative viability (nuclei count vs DMSO), 5 days (fraction); higher = more cells survive",
  "key": {"[1]": {"tested_on": "201T", "how_it_was_run": "(§1)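 Lung cancer cell lines in 1536-well plates were dosed by pin tool the day after seeding, either with one drug alone or with a fixed anchor-drug dose plus five library-drug doses (not always all listed) in √10 steps. After 5 days, cells were fixed and their nuclei stained in one step (final 0.05% Triton X-100, 1% formaldehyde, 1 ug/ml Hoechst), then counted on 4× images. Relative viability is the nuclei count in treated wells divided by that in vehicle wells. Values are medians of duplicate plates.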"}, "[2]": {"tested_on": "A-427", "how_it_was_run": "as §1"}, "[3]": {"tested_on": "BEN", "how_it_was_run": "as §1"}, "[4]": {"tested_on": "COR-L 105", "how_it_was_run": "as §1"}, "[5]": {"tested_on": "COR-L23", "how_it_was_run": "as §1"}, "[6]": {"tested_on": "EKVX", "how_it_was_run": "as §1"}, "[7]": {"tested_on": "HARA", "how_it_was_run": "as §1"}, "[8]": {"tested_on": "HCC-15", "how_it_was_run": "as §1"}, "[9]": {"tested_on": "HCC-44", "how_it_was_run": "as §1"}, "[10]": {"tested_on": "HCC-827", "how_it_was_run": "as §1"}, "[11]": {"tested_on": "LK-2", "how_it_was_run": "as §1"}, "[12]": {"tested_on": "NCI-H1437", "how_it_was_run": "as §1"}, "[13]": {"tested_on": "NCI-H1666", "how_it_was_run": "as §1"}, "[14]": {"tested_on": "NCI-H1792", "how_it_was_run": "as §1"}, "[15]": {"tested_on": "NCI-H1975", "how_it_was_run": "as §1"}, "[16]": {"tested_on": "NCI-H23", "how_it_was_run": "as §1"}, "[17]": {"tested_on": "NCI-H358", "how_it_was_run": "as §1"}, "[18]": {"tested_on": "NCI-H441", "how_it_was_run": "as §1"}, "[19]": {"tested_on": "NCI-H596", "how_it_was_run": "as §1"}, "[20]": {"tested_on": "NCI-H650", "how_it_was_run": "as §1"}, "[21]": {"tested_on": "NCI-H838", "how_it_was_run": "as §1"}, "[22]": {"tested_on": "SK-MES-1", "how_it_was_run": "as §1"}, "[23]": {"tested_on": "SW 900", "how_it_was_run": "as §1"}},
  "data": [
    {"smiles": "O=C(O)c1ccc(-c2c[nH]c3ncc(-c4ccccc4)cc23)cc1C1CCCC1", "note": "+ CC(=O)Nc1cccc(-n2c(=O)n(C3CC3)c(=O)c3c(Nc4ccc(I)cc4F)n(C)c(=O)c(C)c32)c1 [Trametinib] (partner 0.02 µM)", "values": [
      {"measurement": "relative viability", "setting": "[1]; first compound 0.04 µM", "result": 0.703},
      {"measurement": "relative viability", "setting": "[1]; first compound 0.1265 µM", "result": 0.673},
      {"measurement": "relative viability", "setting": "[1]; first compound 0.4 µM", "result": 0.741},
      {"measurement": "relative viability", "setting": "[1]; first compound 1.265 µM", "result": 0.738},
      {"measurement": "relative viability", "setting": "[2]; first compound 0.04 µM", "result": 0.759},
      {"measurement": "relative viability", "setting": "[2]; first compound 0.1265 µM", "result": 0.78},
      {"measurement": "relative viability", "setting": "[2]; first compound 0.4 µM", "result": 0.741},
      {"measurement": "relative viability", "setting": "[2]; first compound 1.265 µM", "result": 0.584},
      {"measurement": "relative viability", "setting": "[3]; first compound 0.04 µM", "result": 1.19},
      {"measurement": "relative viability", "setting": "[3]; first compound 0.1265 µM", "result": 1.05},
      {"measurement": "relative viability", "setting": "[3]; first compound 0.4 µM", "result": 1.08},
      {"measurement": "relative viability", "setting": "[3]; first compound 1.265 µM", "result": 0.957},
      {"measurement": "relative viability", "setting": "[4]; first compound 0.04 µM", "result": 0.402},
      {"measurement": "relative viability", "setting": "[4]; first compound 0.1265 µM", "result": 0.456},
      {"measurement": "relative viability", "setting": "[4]; first compound 0.4 µM", "result": 0.46},
      {"measurement": "relative viability", "setting": "[4]; first compound 1.265 µM", "result": 0.506},
      {"measurement": "relative viability", "setting": "[5]; first compound 0.04 µM", "result": 0.584},
      {"measurement": "relative viability", "setting": "[5]; first compound 0.1265 µM", "result": 0.608},
      {"measurement": "relative viability", "setting": "[5]; first compound 0.4 µM", "result": 0.627},
      {"measurement": "relative viability", "setting": "[5]; first compound 1.265 µM", "result": 0.507},
      {"measurement": "relative viability", "setting": "[6]; first compound 0.04 µM", "result": 0.322},
      {"measurement": "relative viability", "setting": "[6]; first compound 0.1265 µM", "result": 0.408},
      {"measurement": "relative viability", "setting": "[6]; first compound 0.4 µM", "result": 0.33},
      {"measurement": "relative viability", "setting": "[6]; first compound 1.265 µM", "result": 0.316},
      {"measurement": "relative viability", "setting": "[7]; first compound 0.04 µM", "result": 0.692},
      {"measurement": "relative viability", "setting": "[7]; first compound 0.1265 µM", "result": 0.72},
      {"measurement": "relative viability", "setting": "[7]; first compound 0.4 µM", "result": 0.74},
      {"measurement": "relative viability", "setting": "[7]; first compound 1.265 µM", "result": 0.545},
      {"measurement": "relative viability", "setting": "[8]; first compound 0.04 µM", "result": 0.396},
      {"measurement": "relative viability", "setting": "[8]; first compound 0.1265 µM", "result": 0.395},
      {"measurement": "relative viability", "setting": "[8]; first compound 0.4 µM", "result": 0.409},
      {"measurement": "relative viability", "setting": "[8]; first compound 1.265 µM", "result": 0.351},
      {"measurement": "relative viability", "setting": "[9]; first compound 0.04 µM", "result": 1},
      {"measurement": "relative viability", "setting": "[9]; first compound 0.1265 µM", "result": 1.02},
      {"measurement": "relative viability", "setting": "[9]; first compound 0.4 µM", "result": 0.908},
      {"measurement": "relative viability", "setting": "[9]; first compound 1.265 µM", "result": 1.01},
      {"measurement": "relative viability", "setting": "[10]; first compound 0.04 µM", "result": 0.574},
      {"measurement": "relative viability", "setting": "[10]; first compound 0.1265 µM", "result": 0.575},
      {"measurement": "relative viability", "setting": "[10]; first compound 0.4 µM", "result": 0.487},
      {"measurement": "relative viability", "setting": "[10]; first compound 1.265 µM", "result": 0.362},
      {"measurement": "relative viability", "setting": "[11]; first compound 0.04 µM", "result": 0.73},
      {"measurement": "relative viability", "setting": "[11]; first compound 0.1265 µM", "result": 0.816},
      {"measurement": "relative viability", "setting": "[11]; first compound 0.4 µM", "result": 0.599},
      {"measurement": "relative viability", "setting": "[11]; first compound 1.265 µM", "result": 0.781},
      {"measurement": "relative viability", "setting": "[12]; first compound 0.04 µM", "result": 0.476},
      {"measurement": "relative viability", "setting": "[12]; first compound 0.1265 µM", "result": 0.609},
      {"measurement": "relative viability", "setting": "[12]; first compound 0.4 µM", "result": 0.541},
      {"measurement": "relative viability", "setting": "[12]; first compound 1.265 µM", "result": 0.202},
      {"measurement": "relative viability", "setting": "[13]; first compound 0.04 µM", "result": 0.916},
      {"measurement": "relative viability", "setting": "[13]; first compound 0.1265 µM", "result": 0.809},
      {"measurement": "relative viability", "setting": "[13]; first compound 0.4 µM", "result": 0.84},
      {"measurement": "relative viability", "setting": "[13]; first compound 1.265 µM", "result": 0.598},
      {"measurement": "relative viability", "setting": "[14]; first compound 0.04 µM", "result": 0.375},
      {"measurement": "relative viability", "setting": "[14]; first compound 0.1265 µM", "result": 0.454},
      {"measurement": "relative viability", "setting": "[14]; first compound 0.4 µM", "result": 0.407},
      {"measurement": "relative viability", "setting": "[14]; first compound 1.265 µM", "result": 0.392},
      {"measurement": "relative viability", "setting": "[15]; first compound 0.04 µM", "result": 0.319},
      {"measurement": "relative viability", "setting": "[15]; first compound 0.1265 µM", "result": 0.435},
      {"measurement": "relative viability", "setting": "[15]; first compound 0.4 µM", "result": 0.395},
      {"measurement": "relative viability", "setting": "[15]; first compound 1.265 µM", "result": 0.32},
      {"measurement": "relative viability", "setting": "[16]; first compound 0.04 µM", "result": 0.375},
      {"measurement": "relative viability", "setting": "[16]; first compound 0.1265 µM", "result": 0.397},
      {"measurement": "relative viability", "setting": "[16]; first compound 0.4 µM", "result": 0.373},
      {"measurement": "relative viability", "setting": "[16]; first compound 1.265 µM", "result": 0.258},
      {"measurement": "relative viability", "setting": "[17]; first compound 0.04 µM", "result": 0.146},
      {"measurement": "relative viability", "setting": "[17]; first compound 0.1265 µM", "result": 0.129},
      {"measurement": "relative viability", "setting": "[17]; first compound 0.4 µM", "result": 0.138},
      {"measurement": "relative viability", "setting": "[17]; first compound 1.265 µM", "result": 0.0857},
      {"measurement": "relative viability", "setting": "[18]; first compound 0.04 µM", "result": 0.48},
      {"measurement": "relative viability", "setting": "[18]; first compound 0.1265 µM", "result": 0.494},
      {"measurement": "relative viability", "setting": "[18]; first compound 0.4 µM", "result": 0.393},
      {"measurement": "relative viability", "setting": "[18]; first compound 1.265 µM", "result": 0.464},
      {"measurement": "relative viability", "setting": "[19]; first compound 0.04 µM", "result": 0.726},
      {"measurement": "relative viability", "setting": "[19]; first compound 0.1265 µM", "result": 0.815},
      {"measurement": "relative viability", "setting": "[19]; first compound 0.4 µM", "result": 0.777},
      {"measurement": "relative viability", "setting": "[19]; first compound 1.265 µM", "result": 0.802},
      {"measurement": "relative viability", "setting": "[20]; first compound 0.04 µM", "result": 0.935},
      {"measurement": "relative viability", "setting": "[20]; first compound 0.1265 µM", "result": 0.943},
      {"measurement": "relative viability", "setting": "[20]; first compound 0.4 µM", "result": 0.879},
      {"measurement": "relative viability", "setting": "[20]; first compound 1.265 µM", "result": 0.579},
      {"measurement": "relative viability", "setting": "[21]; first compound 0.04 µM", "result": 0.563},
      {"measurement": "relative viability", "setting": "[21]; first compound 0.1265 µM", "result": 0.561},
      {"measurement": "relative viability", "setting": "[21]; first compound 0.4 µM", "result": 0.569},
      {"measurement": "relative viability", "setting": "[21]; first compound 1.265 µM", "result": 0.472},
      {"measurement": "relative viability", "setting": "[22]; first compound 0.04 µM", "result": 0.57},
      {"measurement": "relative viability", "setting": "[22]; first compound 0.1265 µM", "result": 0.538},
      {"measurement": "relative viability", "setting": "[22]; first compound 0.4 µM", "result": 0.521},
      {"measurement": "relative viability", "setting": "[22]; first compound 1.265 µM", "result": 0.524},
      {"measurement": "relative viability", "setting": "[23]; first compound 0.04 µM", "result": 0.757},
      {"measurement": "relative viability", "setting": "[23]; first compound 0.1265 µM", "result": 0.711},
      {"measurement": "relative viability", "setting": "[23]; first compound 0.4 µM", "result": 1.37},
      {"measurement": "relative viability", "setting": "[23]; first compound 1.265 µM", "result": 0.454}
    ]}
  ]
}
